The record followed here is US20080139558A1, “QUINOLONES USEFUL AS INDUCIBLE NITRIC OXIDE SYNTHASE INHIBITORS” (KALYPSYS, INC., priority 2006, published 2008).

T1 sequence (P35228 whole entry): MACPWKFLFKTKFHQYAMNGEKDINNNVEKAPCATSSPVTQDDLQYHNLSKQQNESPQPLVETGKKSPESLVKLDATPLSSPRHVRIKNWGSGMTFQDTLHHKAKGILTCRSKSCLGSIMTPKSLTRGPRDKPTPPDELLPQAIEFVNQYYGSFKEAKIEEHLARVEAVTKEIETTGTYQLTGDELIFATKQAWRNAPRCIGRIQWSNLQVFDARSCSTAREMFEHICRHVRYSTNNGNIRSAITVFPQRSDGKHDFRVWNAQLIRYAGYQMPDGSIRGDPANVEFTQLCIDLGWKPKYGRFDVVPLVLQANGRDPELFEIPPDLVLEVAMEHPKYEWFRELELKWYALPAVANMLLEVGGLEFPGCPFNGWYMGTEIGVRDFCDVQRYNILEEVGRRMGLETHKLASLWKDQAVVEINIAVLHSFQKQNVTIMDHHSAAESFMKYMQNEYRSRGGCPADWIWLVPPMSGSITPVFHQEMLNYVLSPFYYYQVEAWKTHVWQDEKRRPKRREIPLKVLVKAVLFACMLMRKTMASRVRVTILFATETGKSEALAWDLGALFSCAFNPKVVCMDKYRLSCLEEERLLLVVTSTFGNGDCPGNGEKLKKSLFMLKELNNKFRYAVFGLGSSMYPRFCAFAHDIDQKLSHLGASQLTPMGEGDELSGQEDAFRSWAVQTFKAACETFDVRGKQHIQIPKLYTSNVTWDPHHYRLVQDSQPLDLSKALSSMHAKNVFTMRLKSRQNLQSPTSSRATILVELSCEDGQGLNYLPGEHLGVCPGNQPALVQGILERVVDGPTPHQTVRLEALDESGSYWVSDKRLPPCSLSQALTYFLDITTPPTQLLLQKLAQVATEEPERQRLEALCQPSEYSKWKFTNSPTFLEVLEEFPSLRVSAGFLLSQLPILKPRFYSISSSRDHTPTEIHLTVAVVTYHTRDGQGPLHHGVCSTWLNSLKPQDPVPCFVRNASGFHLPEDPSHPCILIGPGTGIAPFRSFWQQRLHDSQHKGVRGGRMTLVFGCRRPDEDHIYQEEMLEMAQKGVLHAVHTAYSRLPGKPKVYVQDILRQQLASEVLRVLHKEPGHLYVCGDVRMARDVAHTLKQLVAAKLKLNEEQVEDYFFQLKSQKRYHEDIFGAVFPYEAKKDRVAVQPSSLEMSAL

This experiment has as its target T1, human iNOS (Homo sapiens, UniProt P35228).
T1 construct: expressed in transfected cells; host or cells: HEK293
Nature of the experiment: DAN assay of nitric oxide production (hiNOS). In kind it is cell-based. The note with it: enzyme expressed in HEK293 cells transiently transfected with human iNOS. The method in brief: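 Human iNOS transiently expressed in HEK293 cells; NO production quantified as nitrite via 2,3-diaminonaphthalene reaction forming fluorescent naphthotriazole.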
Regarding `O=C(c1cccs1)N(Cc1cc(=O)[nH]c2ccccc12)c1ccccc1` [Example 7, N-[(2-Oxo-1,2-dihydroquinolin-4-yl)methyl]-N-phenylthiophene-2-carboxamide], the EC50 is > 5 µM.

As for `CC(C)S(=O)(=O)N(Cc1cc(=O)[nH]c2c(F)c(F)ccc12)c1cccc(Cl)c1` [Example 188, N-(3-Chlorophenyl)-N-((7,8-difluoro-2-oxo-1,2-dihydroquinolin-4-yl)methyl)propane-2-sulfonamide], the half-maximal effective concentration (EC50) was ≤ 5 µM.

On to `Cc1ncsc1C(=O)N(Cc1cc(=O)[nH]c2c(F)c(F)ccc12)c1cccnc1` [Example 263, N-((7,8-Difluoro-2-oxo-1,2-dihydroquinolin-4-yl)methyl)-4-methyl-N-(pyridin-3-yl)thiazole-5-carboxamide], for which the EC50 was ≤ 5 µM.

Turning to `Cc1ncsc1C(=O)N(Cc1cc(=O)[nH]c2c(Br)ccc(F)c12)c1cccc(Cl)c1` [Example 107, N-((8-Bromo-5-fluoro-2-oxo-1,2-dihydroquinolin-4-yl)methyl)-N-(3-chlorophenyl)-4-methylthiazole-5-carboxamide], the half-maximal effective concentration (EC50) was > 5 µM.

Turning to `O=c1cc(CN(c2cccc(Cl)c2)c2ccccn2)c2cccc(F)c2[nH]1` [Example 77, 4-(((3-Chlorophenyl)(pyridin-2-yl)amino)methyl)-8-fluoroquinolin-2(1H)-one], the EC50 was > 5 µM.

`N#Cc1ccccc1C(=O)N(Cc1cc(=O)[nH]c2c(F)cccc12)c1cccc(Cl)c1` [Example 64, N-(3-Chlorophenyl)-2-cyano-N-((8-fluoro-2-oxo-1,2-dihydroquinolin-4-yl)methyl)benzamide]: the half-maximal effective concentration (EC50) is > 5 µM.

`CC1CC1c1nc2ccccc2n1Cc1cc(=O)[nH]c2c(F)c(F)ccc12` (racemic) [Example 238, 7,8-Difluoro-4-((2-(2-methylcyclopropyl)-1H-benzo[d]imidazol-1-yl)methyl)quinolin-2(1H)-one]: the EC50 is > 5 µM.

As to `Cc1ncsc1CN(C(=O)c1cc(=O)[nH]c2c(F)cccc12)c1ccc(F)c(Cl)c1` [Example 104, N-(3-Chloro-4-fluorophenyl)-8-fluoro-N-((4-methylthiazol-5-yl)methyl)-2-oxo-1,2-dihydroquinoline-4-carboxamide], the EC50 is > 5 µM.

As to `Cc1cccc2c1nc(CC(C)C)n2Cc1cc(=O)[nH]c2c(F)c(F)ccc12` [Example 225, 7,8-Difluoro-4-((2-isobutyl-4-methyl-1H-benzo[d]imidazol-1-yl)methyl)quinolin-2(1H)-one], the EC50 is ≤ 5 µM.

For `Cc1ncsc1C(=O)N(Cc1cc2cccc(F)c2[nH]c1=O)c1cccc(Cl)c1` [Example 171, N-(3-Chlorophenyl)-N-((8-fluoro-2-oxy-1,2-dihydroquinolin-3-yl)methyl)-4-methylthiazole-5-carboxamide], the concentration giving a half-maximal response (EC50) was > 5 µM.

`O=C(c1ccc2ccccc2c1)N(Cc1cc(=O)[nH]c2c(F)cccc12)c1cccc(Cl)c1` [Example 83, N-(3-Chlorophenyl)-N-((8-fluoro-2-oxo-1,2-dihydroquinolin-4-yl)methyl)-2-naphthamide]: the EC50 is > 5 µM.

Take `Cc1ncsc1C(=O)N(Cc1cc(=O)[nH]c2cccc(F)c12)c1cccc(Cl)c1` [Example 111, N-(3-Chlorophenyl)-N-((5-fluoro-2-oxo-1,2-dihydroquinolin-4-yl)methyl)-4-methylthiazole-5-carboxamide]: the 50% effective concentration (EC50) was ≤ 5 µM.

`O=c1cc(CN2CCN(c3ccccc3F)CC2)c2ccccc2[nH]1` [Example 106, 4-((4-(2-Fluorophenyl)piperazin-1-yl)methyl)quinolin-2(1H)-one]: the concentration for a half-maximal effect (EC50) was > 5 µM.

Consider `Cc1nc(N(C)C)sc1C(=O)N(Cc1cc(=O)[nH]c2ccccc12)c1ccccc1` [Example 100, 2-(Dimethylamino)-4-methyl-N-((2-oxo-1,2-dihydroquinolin-4-yl)methyl)-N-phenylthiazole-5-carboxamide], for which the half-maximal effective concentration (EC50) is ≤ 5 µM.

Consider `Cn1cncc1C(=O)N(Cc1cc(=O)[nH]c2c(F)cccc12)c1cccc(Cl)c1` [Example 48, N-(3-Chlorophenyl)-N-((8-fluoro-2-oxo-1,2-dihydroquinolin-4-yl)methyl)-1-methyl-1H-imidazole-5-carboxamide], for which the EC50 is > 5 µM.

Take `Cc1cccc2c1nc(C(C)C)n2Cc1cc(=O)[nH]c2c(F)c(F)ccc12` [Example 224, 7,8-Difluoro-4-((2-isopropyl-4-methyl-1H-benzo[d]imidazol-1-yl)methyl)quinolin-2(1H)-one]: the concentration for a half-maximal effect (EC50) was ≤ 5 µM.

For the molecule `O=C(c1ccco1)N(Cc1cc(=O)[nH]c2ccccc12)c1ccc(Cl)cc1` [Example 2, N-(4-Chlorophenyl)-N-((2-oxo-1,2-dihydroquinolin-4-yl)methyl)furan-2-carboxamide], the half-maximal effective concentration (EC50) was > 5 µM.

As for `Cc1ncsc1C(=O)N(Cc1cc(=O)[nH]c2c(F)c(F)ccc12)C1CC1` [Example 86, N-Cyclopropyl-N-((7,8-fluoro-2-oxo-1,2-dihydroquinolin-4-yl)methyl)-4-methylthiazole-5-carboxamide], the half-maximal effective concentration (EC50) was > 5 µM.

For the molecule `Cc1ncsc1C(=O)N(Cc1cc(=O)[nH]c2c(F)cccc12)c1ccccc1` [Example 97, N-Phenyl-N-((8-fluoro-2-oxo-1,2-dihydroquinolin-4-yl)methyl)-4-methylthiazole-5-carboxamide], the EC50 is ≤ 5 µM.

Take `CC(C)c1nc2cc(F)c(F)cc2n1Cc1cc(=O)[nH]c2c(F)c(F)ccc12` [Example 229, 7,8-Difluoro-4-((5,6-difluoro-2-isopropyl-1H-benzo[d]imidazol-1-yl)methyl)quinolin-2(1H)-one]: the EC50 was > 5 µM.

Consider `O=c1cc(Cn2c(-c3cccnc3)nc3ccccc32)c2cccc(F)c2[nH]1` [Example 118, 8-Fluoro-4-((2-(pyridin-3-yl)-1H-benzo[d]imidazol-1-yl)methyl)quinolin-2(1H)-one], for which the concentration giving a half-maximal response (EC50) is > 5 µM.

As to `N#Cc1cccc(C(=O)N(Cc2cc(=O)[nH]c3c(F)cccc23)c2cccc(Cl)c2)c1` [Example 65, N-(3-Chlorophenyl)-3-cyano-N-((8-fluoro-2-oxo-1,2-dihydroquinolin-4-yl)methyl)benzamide], the EC50 is > 5 µM.

On to `Cc1nc(N2CCOCC2)sc1C(=O)N(Cc1cc(=O)[nH]c2ccccc12)c1ccccc1` [Example 101, 4-Methyl-2-morpholino-N-((2-oxo-1,2-dihydroquinolin-4-yl)methyl)-N-phenylthiazole-5-carboxamide], for which the concentration giving a half-maximal response (EC50) was ≤ 5 µM.

`Cc1ncsc1C(=O)N(Cc1cc(=O)[nH]c2c(F)cccc12)c1ccc(F)c(Cl)c1` [Example 85, N-(3-Chloro-4-fluorophenyl)-N-((8-fluoro-2-oxo-1,2-dihydroquinolin-4-yl)methyl)-4-methylthiazole-5-carboxamide]: the concentration giving a half-maximal response (EC50) is ≤ 5 µM.

Regarding `COc1cccc(N(Cc2cc(=O)[nH]c3c(F)c(F)ccc23)C(=O)c2scnc2C)c1` [Example 180, N-(3-Methoxylphenyl)-N-((7,8-fluoro-2-oxo-1,2-dihydroquinolin-4-yl)methyl)-4-methylthiazole-5-carboxamide], the concentration giving a half-maximal response (EC50) is ≤ 5 µM.

Take `Cc1nc(C)c(S(=O)(=O)N(Cc2cc(=O)[nH]c3c(F)c(F)ccc23)c2cccc(Cl)c2)s1` [Example 189, N-(3-Chlorophenyl)-N-((7,8-difluoro-2-oxo-1,2-dihydroquinolin-4-yl)methyl)-2,4-dimethylthiazole-5-sulfonamide]: the EC50 was ≤ 5 µM.

As for `O=C(c1ccoc1)N(Cc1cc(=O)[nH]c2ccccc12)c1ccccc1` [Example 26, N-((2-Oxo-1,2-dihydroquinolin-4-yl)methyl)-N-phenylfuran-3-carboxamide], the EC50 is > 5 µM.

On to `Cc1cccc(N(Cc2cc(=O)[nH]c3c(F)c(F)ccc23)C(=O)c2scnc2C)c1` [Example 94, N-(3-Methylphenyl)-N-((7,8-fluoro-2-oxo-1,2-dihydroquinolin-4-yl)methyl)-4-methylthiazole-5-carboxamide], for which the concentration for a half-maximal effect (EC50) is ≤ 5 µM.

On to `Cc1ncsc1C(=O)N(Cc1cc(=O)[nH]c2c(F)c(F)ccc12)c1ccccc1` [Example 175, N-Phenyl-N-((7,8-fluoro-2-oxo-1,2-dihydroquinolin-4-yl)methyl)-4-methylthiazole-5-carboxamide], for which the EC50 is ≤ 5 µM.

With `Cc1noc(C)c1C(=O)N(Cc1cc(=O)[nH]c2ccccc12)c1ccccc1` [Example 30, 3,5-Dimethyl-N-((2-oxo-1,2-dihydroquinolin-4-yl)methyl)-N-phenylisoxazole-4-carboxamide], the EC50 is > 5 µM.

On to `O=c1cc(Cn2c(-c3c(F)cccc3F)nc3ccccc32)c2ccc(F)c(F)c2[nH]1` [Example 247, 4-((2-(2,6-Difluorophenyl)-1H-benzo[d]imidazol-1-yl)methyl)-7,8-difluoroquinolin-2(1H)-one], for which the EC50 was > 5 µM.

With `COc1ccc(N(Cc2cc(=O)[nH]c3c(F)c(F)ccc23)C(=O)c2scnc2C)cc1Cl` [Example 176, N-(3-Chloro4-methoxylphenyl)-N-((7,8-fluoro-2-oxo-1,2-dihydroquinolin-4-yl)methyl)-4-methylthiazole-5-carboxamide], the EC50 was ≤ 5 µM.

Consider `CC(C)C(=O)N(Cc1cc(=O)[nH]c2c(F)cccc12)c1cccc(Cl)c1` [Example 80, N-(3-Chlorophenyl)-N-((8-fluoro-2-oxo-1,2-dihydroquinolin-4-yl)methyl)isobutyramide], for which the EC50 was > 5 µM.

Turning to `O=c1cc(Cn2c(-c3cncs3)nc3ccccc32)c2ccc(F)c(F)c2[nH]1` [Example 191, 7,8-Difluoro-4-((2-(thiazol-5-yl)-1H-benzo[d]imidazol-1-yl)methyl)quinolin-2(1H)-one], the concentration giving a half-maximal response (EC50) is ≤ 5 µM.

Regarding `O=C(c1ccccn1)N(Cc1cc(=O)[nH]c2c(F)cccc12)c1cccc(Cl)c1` [Example 67, N-(3-Chlorophenyl)-N-((8-fluoro-2-oxo-1,2-dihydroquinolin-4-yl)methyl)picolinamide], the 50% effective concentration (EC50) was > 5 µM.

As to `CC(C)c1nn(Cc2cc(=O)[nH]c3c(F)c(F)ccc23)c2ccccc12` [Example 239, 7,8-Difluoro-4-((3-isopropyl-1H-indazol-1-yl)methyl)quinolin-2(1H)-one], the EC50 was > 5 µM.

For `Cc1ncsc1C(=O)N(Cc1cc(=O)[nH]c2c(F)c(F)ccc12)c1cc(F)cc(Cl)c1` [Example 89], the half-maximal effective concentration (EC50) was ≤ 5 µM.

Broadly, the EC50 is the midpoint of the concentration-response curve. High values mean a need for much substance, low ones an effect from little substance.
